Measured values as given in US20090227534A1, “Pharmaceutical Composition Comprising the Combination of a Ketorolac Salt and Vitamins of the-B-Complex for the Treatment of Neuralgia” (LABORATORIOS SENOSITAN S.A. DE C.V., priority 2006, published 2009).
Read-outs that look alike come from different tables or passages of the source.

Experiments:
[1] = tested on: rats; test: Antinociception, formalin test (1% 50 μl), second phase; type: in vivo; details: rat, phase two; for Emax: read-out: maximum effect (decrease in number of shakes)
Description: We worked with five groups of 8 rats each. The antinociception effect was evaluated via the formalin test (1% 50 μl); rats are placed in an observation chamber made of acrylic material. The nociceptive behavior was evaluated based on the number of shakes at the injected paw.
Used substances: saline solution, formalin (produces nociceptive effect), ketorolac, riboflavin and B-complex (vitamins B1, B6 and B12).
For the dose-response curve, each group received a 0.32-10 mg/kg of ketorolac dose, 6.25-100 mg/kg of riboflavin, 56-316 mg/kg of B-complex, ketorolac-B-complex combination and ketorolac-riboflavin combinations.
The antinociceptive effect was measured for sixty minutes. […] Acute or initial phase from 0 to 10 minutes and tonic phase from 15 to 60 minutes.
Curves for the number of shakes against time were plot and the area under the curve was obtained (AUC) for the second phase, using the trapezoids method.
The dose-response curve for each composition was obtained as the percentage of the maximum possible effect.
The antinociceptive effect of ketorolac, B-complex in ratios of 100:100:1 of B1, B6 and B12 (respectively), riboflavin, ketorolac-B-complex combination, and ketorolac-riboflavin combination were evaluated.
A saline solution was used as a negative control solution (base level).
Administration: riboflavin (alone), ketorolac (alone), B-complex (alone), ketorolac-riboflavin combination, and ketorolac-B-complex combination.

[2] = tested on: rat paw; test: Antinociceptive effect, heat-stimulation model in the rat paw (carrageen); type: in vivo; details: oral, measured for 6 hours
Description: Methodology: We worked with five groups of 8 rats each. The antinociceptive effect was evaluated through the heat-stimulation model in the rat paw. Used substances: saline solution, carrageen to produce the nociceptive effect (pain), ketorolac, riboflavin and B-complex (vitamins B1, B6 and B12). For the doses-response curve, each group received a ketorolac dose so that 0.32, 1, 1.8, 3.2 y 10 mg/kg of weight were administrated orally. The antinociceptive effect was measured for 6 hours. Latency time curves were plot on a graph (the time rat takes before moving […] its paw to avoid the pain) as a function of time. Saline solution was used as a negative control solution (establishing the base level) and carrageen to produce a sensitizing effect (inflammation). […] The following were administered: Riboflavin (alone), Ketorolac (alone), B-Complex (alone), Ketorolac and Riboflavin combination, and Ketorolac and B-Complex combination. Isobolograms were made in order to evaluate the interaction between ketorolac and B-complex using the ED25 values (effective doses) obtained from the dose-response curves for the administered drugs alone or combined.

[3] = Solubility of ketorolac in water; type: physicochemical
Source text: (§1) Clinical studies have shown that ketorolac is a strong and effective analgesic. […] Ketorolac is one of the few non-steroidal anti-inflammatory drugs approved for parenteral administration. However, when administered in combination with other substances, it usually presents stability problems.

[4] = cited from earlier work; for time to reach maximum plasma concentration (tmax): healthy humans
[5] = Laboratory stability tests: ketorolac with acid solutions, direct combination with B-complex, light exposure; type: physicochemical
Description: as §1
Currently, there are no individual pharmaceutical forms for the parenteral administration of ketorolac at 15 mg/ml and B-complex, as described in this invention.
The above situation makes impossible to simply combine ketorolac and B-complex, making it necessary to research and develop a system that provides appropriate stability characteristics for parenteral administration.

Question: For `Cc1cc2nc3c(=O)[nH]c(=O)nc-3n(C[C@H](O)[C@H](O)[C@H](O)CO)c2cc1C` [riboflavin, Riboflavin], which ED25 [1] is on record?
Answer: The ED25 was 39.8 ± 7.1 mg/kg.

Question: And the Emax [1]?
Answer: The Emax was 33%.

Question: And the “antinociceptive effect (area under the latency curve as a function of time), dose-response” value [2]?
Answer: The value was “dose-dependant response”.

Question: Which ED25 [1] does the source give for `O=C(c1ccccc1)c1ccc2n1CCC2C(=O)O` (racemic) [ketorolac, (±)-5(benzoyl)-2,3-dihydro-1N-pyrrolizine-1-carboxylic acid tris hydroxy methyl amino methane] here?
Answer: Its ED25 is 2.1 ± 0.5 mg/kg.

Question: What about the Emax [1] of the same compound?
Answer: Its Emax is 36%.

Question: What about the solubility in water [3] of the same compound?
Answer: The solubility in water was “highly soluble”.

Question: And the “time to reach maximum plasma concentration (tmax)” value ([4]; intramuscular)?
Answer: Its value is 46 min.

Question: And the “time to reach maximum plasma concentration (tmax)” value ([4]; oral)?
Answer: Its value is 53 min.

Question: What about the excreted in feces ([4]; humans) of the same compound?
Answer: The excreted in feces was 6%.

Question: And the excreted in urine ([4]; humans)?
Answer: Its excreted in urine is 92%.

Question: What about the “stability when acid solutions are present” value [5] of the same compound?
Answer: The value was “decreases significantly”.

Question: And the “antinociceptive effect (area under the latency curve as a function of time), dose-response” value [2]?
Answer: The value was “dose-dependant response”.
